Data set [1] deals with respiratory syncytial virus A2 (ATCC VR-1540). Description: Cytopathic effect assay with RSV A2 in MA-104 cells. It is filed as cell-based. The settings on record: human respiratory syncytial virus, MA104, CPE inhibition, neutral red. On the procedure:
(§1) Test compounds were dissolved in DMSO and then prepared in eight half-log dilutions in MEM medium with 50 μg/mL gentamicin and 2% FBS (MA-104 cells only). Each dilution was added to 5 wells of a 96-well plate with 80-100% confluent cells (either MA-104 cells or HEp-2 cells). Three wells of each dilution were infected with respiratory syncytial virus A2 (ATCC VR-1540) and two wells remained uninfected as toxicity controls. After maximum cytopathic effect (CPE) was observed microscopically in untreated virus control wells, plates were stained with neutral red dye for approximately 2 hours, then supernatant dye was removed and the incorporated dye was extracted in 50:50 Sorensen citrate buffer/ethanol and read on a spectrophotometer. Optical density values were normalized based on cell and virus controls, then the concentration of test compound required to inhibit CPE by 50% (EC50) was calculated by regression analysis. The reported EC50 value is the mean of at least two experiments. The concentration of compound that caused 50% CPE in the absence of virus was similarly calculated to determine cytotoxicity (CC50).
A general note: Damage to the host cells serves as the signal in cytopathic effect assays.

The test system of data set [2] is Differentiated normal human bronchial epithelial (dNHBE) cells. Description: dNHBE assay: toxicity evaluated microscopically. The class given is cell-based. Also on record: unit not given here. On the procedure: (§2) Differentiated normal human bronchial epithelial (dNHBE) cells were grown on 6 mm mesh disks in transwell inserts to approximately 1.2×10^6 cells/disk and disks were transferred to individual wells of a 6-well plate. 1 mL of proprietary culture medium was added to the basolateral side of the cells and the apical side was exposed to a humidified 95% air/5% CO2 environment. Cells were cultured at 37° C. for one day and then the mucin layer was removed from the apical side of the cells by repeated (3×) washing with 500 μL 30 mM HEPES buffered saline solution and culture medium on the basal side was replenished.
(§3) Various concentrations of test compounds in medium were applied in duplicate to the apical (140 μL) and basal sides (1 mL) for a 1 hour pre-treatment, followed by addition of 140 μL of virus inoculum to each cell insert on the apical side. The viral inoculum and treatments were removed after 2 hours. Control cells were treated with placebo (culture medium only). Following infection, the apical medium was removed and the basal side was replaced with fresh compound in medium. The cells were maintained at the air-liquid interface, and cell culture medium on the basal side was replaced daily with fresh medium containing test compound. After 4 days, the liquid was removed from the basal side and discarded and virus released into the apical compartment was harvested by the addition of 500 μL of culture medium. The medium was thoroughly mixed, then removed, diluted 1:1 with 40% sucrose and stored at ≤−80° C.
(§4) Concentrations of test compounds that reduced virus yield by 1 log10 (90% effective concentration; EC90) were calculated by regression analysis. The reported EC90 value is the mean of at least two experiments. Potential toxicity of the test compounds was evaluated microscopically.

Data set [3] relates to Respiratory syncytial virus (RSV) type A, strain A2 (ATCC VR-1540). Description: dNHBE assay: RSV virus yield reduction (EC90). The settings on record: RSV (A2) in dNHBE cells, concentration reducing virus yield by 1 log10, mean of at least two experiments. It is filed as cell-based. On the procedure:
as §2
Respiratory syncytial virus (RSV) type A, strain A2 (ATCC VR-1540), previously passaged in MA-104 cells to make working stock cultures, was diluted 1/10 in medium before infection, using a multiplicity of infection (MOI) of ≤0.03 CCID50 per cell.
as §3
To determine the virus titer from each treated cell culture, MA-104 cells were seeded in 96-well plates and grown overnight (37° C.) to confluence. Samples containing virus were diluted in 10-fold increments in infection medium and 200 μL of each dilution transferred into respective wells of a 96-well microtiter plate. Four microwells were used for each dilution to determine 50% viral endpoints. After 7 days of incubation, each well was scored positive for virus if any cytopathic effect was observed as compared with the uninfected control. The virus dose that was able to infect 50% of the cell cultures (CCID50 per 0.1 mL) was calculated by the Reed-Muench method. This was repeated in duplicate for each test sample, so that values reported are an average of 2 independent CCID5o determinations. Untreated, uninfected cell controls were tested as negative controls. Statistical differences in the titers were evaluated with a one-way analysis of variance (ANOVA) followed by Dunnett's multiple comparisons test compared with the untreated virus controls.
as §4

In the next data set the test system is HEp-2 cells. Description: Cytotoxicity in uninfected HEp-2 cells, neutral red. Also noted: unit not given here. The settings on record: absence of virus. It is filed as cell-based. On the procedure:
as §1

For data set [4], the system named is respiratory syncytial virus A2 (ATCC VR-1540). Nature of the data set: Cytopathic effect assay with RSV A2 in HEp-2 cells. Conditions: human respiratory syncytial virus; RSV in HEp-2 cells, CPE inhibition, neutral red. It is filed as cell-based. On the procedure:
as §1

In data set [5] the test system is human bone marrow progenitor cells (BFU-E). Nature of the data set: Human bone marrow progenitor cell assay, BFU-E. It is filed as cell-based. Conditions: Homo sapiens, 336 h; BFU-E-specific culture, 14-day incubation, colony counts; read-out: Bone Marrow Stem Cell IC50 BFU-E. On the procedure: (§5) Select compounds were tested in an in vitro selectivity study with human bone marrow progenitor cells. Fresh human bone marrow progenitor cells (Invitrogen) suspended in either BFU-E or GM-CSF-specific culture medium were added, at 10^5 cells/well, to triplicate serial dilutions of TA in 6-well plates. After 14-day incubations, colony counts were used to determine […] values. BFU-E colonies were confirmed using the benzidene technique. No cytotoxicity was observed from any of the tested compounds.

For data set [6], the system named is human bone marrow progenitor cells (CFU-GM). Nature of the data set: Human bone marrow progenitor cell assay, CFU-GM (GM-CSF-specific culture). It is filed as cell-based. Conditions: Homo sapiens, CFU-GM, 336 h, 14-day incubation, colony counts, read-out: Bone Marrow Stem Cell IC50 CFU-GM. On the procedure: as §5
A further data set has as its system iPS cardiomyocytes. Nature of the data set: iPS cardiomyocyte assay (XTT viability). It is filed as cell-based. The settings on record: 72 h, 3 days incubation, XTT staining. On the procedure:
Select compounds were tested in an in vitro selectivity study with iPS cardiomyocytes. iPS cardiomyocytes (Cellular Dynamics) were seeded in microliter plates at 1.5×10^4 cells per well. After 48-hr incubation, cells were washed and maintenance medium containing 30 serially diluted TA was added in triplicate. After incubating for an additional 3 days, cellviability was measured by staining with XTT and CC50 values were calculated. No cytotoxicity was observed from any of the tested compounds.

Data set [7] in a line: Hamster lung triphosphate assay. It is filed as in vivo, Golden Syrian hamsters. The settings on record: analog triphosphate in hamster lung tissue 72 h after oral target dose of 50 mg/kg in PEG400. On the procedure:
Male Golden Syrian hamsters (n=3 per test compound) were fasted overnight and then administered test compounds in PEG400 at a target dose of 50 mg/kg by oral gavage. Food was returned 4 h after dosing. At 72 h post dose, animals were anesthetized and a sample of lung tissue was removed and flash-frozen in liquid nitrogen. Approximately 0.5 g of frozen tissue was homogenized using a Polytron homogenizer in 5 volumes homogenization solution (MeOH:50% aqueous KOH:268 mM EDTA, pH 8, 1750:5:750, v/v) in a dry ice/ethanol bath. Supernatants were prepared by centrifugation and analyzed by LC-MS/MS for concentrations of the corresponding analog triphosphates. See Table 7 below for the 72 hour lung triphosphate concentration. After 72 hours, the lung triphosphate concentration following administration of Compound AB and Compound AC was greater than 800 ng/g.

The mark [8] stands for this setting: human respiratory syncytial virus.

Bounds are passed on as bounds.

The term EC50 denotes the concentration that produces a half-maximal response. For orientation: EC90 means the concentration at which the effect reaches the 90% level. As usually defined, the IC50 is the point on the concentration scale where inhibition reaches its midpoint.

With `Nc1ccn([C@@H]2O[C@@](CO)(CCl)C(O)[C@H]2F)c(=O)n1` (stereo in doubt) [W], the EC50 worked out at 9.6 µM in data set [1] and 0.6 µM in [4]. The Visual toxicity in data set [2] was more than 338. In addition, in data set [3] (setting [8]), the 90% effect level (EC90) was put at 0.58 µM. Also, in the data set on HEp-2 cells, the TC50 is recorded as more than 100.
`CNc1nc(F)nc2c1ncn2[C@@H]1O[C@](C)(CO[P@@](=O)(N[C@@H](C)C(=O)OC(C)C)Oc2ccccc2)[C@@H](O)[C@H]1F` [AH, (S)-Isopropyl 2-(((S)-(((2R,3R,4R,5R)-5-(6-(methylamino)-2-fluoro-9H-purin-9-yl)-4-fluoro-3-hydroxy-2-methyltetrahydrofuran-2-yl)methoxy)(phenoxy)phosphoryl)amino) propanoate]: the IC50 (in [5]; in data set [6]; with iPS cardiomyocytes) was more than 100 µM each time. The same compound had a Visual toxicity in [2] of more than 1.7. The compound also came in with an EC90 in [3] (setting [8]) of 0.12 µM.
With `CNc1nc(N)nc2c1ncn2[C@@H]1O[C@](CCl)(CO[P@@](=O)(N[C@@H](C)C(=O)OC(C)C)Oc2ccccc2)[C@@H](O)[C@H]1F` [AI, (S)-Isopropyl 2-(((S)-(((2R,3R,4R,5R)-5-(2-amino-6-(methylamino)-9H-purin-9-yl)-2-(chloromethyl)-4-fluoro-3-hydroxytetrahydrofuran-2-yl)methoxy)(phenoxy)phosphoryl)amino) propanoate], the IC50 (in data set [5]; in data set [6]; with iPS cardiomyocytes) was more than 100 µM each time. Moreover, in [2], the Visual toxicity is reported as more than 1.6. This compound also yielded a 90% effect concentration (EC90) in data set [3] (setting [8]) of 0.13 µM.
Take `CC(C)OC(=O)[C@H](C)N[P@](=O)(OC[C@@]1(C)O[C@@H](n2cnc3c(N(C)C)nc(NC(=O)C(C)C)nc32)[C@H](F)[C@@H]1O)Oc1ccccc1` [AO, (S)-Isopropyl 2-(((S)-(((2R,3R,4R,5R)-5-(6-(dimethylamino)-2-isobutyramido-9H-purin-9-yl)-4-fluoro-3-hydroxy-2-methyltetrahydrofuran-2-yl)methoxy)(phenoxy)phosphoryl)amino) propanoate]: in [7], the “72 h Lung TP Concentration” value stood at 108 ng/g. In data set [2], the Visual toxicity is reported as more than 1.5. Moreover, in data set [3], the EC90 is 0.096 µM.
Consider `CNc1nc(F)nc2c1ncn2[C@@H]1O[C@](CCl)(CO[P@@](=O)(N[C@@H](C)C(=O)OC(C)C)Oc2ccccc2)[C@@H](O)[C@@H]1F` [AQ, (S)-Isopropyl 2-(((S)-(((2R,3R,4S,5R)-5-(6-(methylamino)-2-fluoro-9H-purin-9-yl)-2-(chloromethyl)-4-fluoro-3-hydroxytetrahydrofuran-2-yl)methoxy)(phenoxy)phosphoryl)amino) propanoate], for which the IC50 (in data set [5]; in data set [6]; in the data set on iPS cardiomyocytes) was more than 100 µM throughout. Moreover, the Visual toxicity in data set [2] is listed as more than 1.6. Further, the EC90 in data set [3] (setting [8]) came out at 0.18 µM.
For `CNc1nc(N)nc2c1ncn2[C@@H]1O[C@](C)(CO[P@@](=O)(N[C@@H](C)C(=O)OC(C)C)Oc2ccccc2)[C@@H](O)[C@H]1F` [Compound AB, (S)-Isopropyl 2-(((S)-(((2R,3R,4R,5R)-5-(2-amino-6-(methylamino)-9H-purin-9-yl)-4-fluoro-3-hydroxy-2-methyltetrahydrofuran-2-yl)methoxy)(phenoxy)phosphoryl)amino) propanoate], the IC50 (in data set [5]; in data set [6]; with iPS cardiomyocytes) was more than 100 µM in each case. Moreover, the Visual toxicity in data set [2] is given as more than 17. Also, the 90% effect level in data set [3] (EC90) was put at 0.052 µM.
On to `CNc1nc(N)nc2c1ncn2[C@@H]1O[C@](C)(CO)[C@@H](O)[C@H]1F` [Compound C, (2R,3R,4R,5R)-5-(2-Amino-6-(methylamino)-9H-purin-9-yl)-4-fluoro-2-(hydroxymethyl)-2-methyltetrahydrofuran-3-ol], for which the Visual toxicity in [2] is listed as more than 320. It took 3.2 µM to reach the 90% level in data set [3] (setting [8]) (EC90). In the data set with HEp-2 cells, this compound yielded a TC50 of more than 100. This compound yielded an EC50 in data set [4] of more than 100 µM.
For the compound `CNc1nc(N)nc2c1ncn2[C@@H]1O[C@](C)(COP(=O)(N[C@@H](C)C(=O)OC(C)C)Oc2ccccc2)[C@@H](O)[C@H]1F` (some centres unmarked) [Compound D], the Visual toxicity in data set [2] is reported as more than 172. In addition, the EC90 in data set [3] (setting [8]) stood at 1.7 µM. The compound further showed a TC50 in the data set with HEp-2 cells of more than 100. The compound also showed an EC50 in data set [4] of more than 100 µM.
`CC[C@]1(CO)O[C@@H](n2cnc3c(N(C)C)nc(N)nc32)[C@H](F)[C@@H]1O` [Compound O, (2R,3R,4R,5R)-5-(2-Amino-6-(dimethylamino)-9H-purin-9-yl)-2-ethyl-4-fluoro-2-(hydroxymethyl)tetrahydrofuran-3-ol]: the EC50 in data set [1] is more than 293 µM; in data set [4] it was more than 100 µM. The same compound returned a Visual toxicity in data set [2] of more than 293. The same compound yielded an EC90 in [3] (setting [8]) of more than 293 µM. Besides, the TC50 in the data set with HEp-2 cells is reported as more than 100.
`CC[C@]1(COP(=O)(N[C@@H](C)C(=O)OC(C)C)Oc2ccccc2)O[C@@H](n2cnc3c(N(C)C)nc(N)nc32)[C@H](F)[C@@H]1O` (stereo partly drawn) [Compound P, (2S)-Isopropyl 2-(((((2R,3R,4R,5R)-5-(2-amino-6-(dimethylamino)-9H-purin-9-yl)-2-ethyl-4-fluoro-3-hydroxytetrahydrofuran-2-yl)methoxy)(phenoxy)-phosphoryl)amino) propanoate]: the figures for the EC50 in data set [1] and in data set [4] were more than 164 µM and more than 100 µM, respectively. Besides, in data set [2], the Visual toxicity is listed as more than 143. This compound returned an EC90 in data set [3] (setting [8]) of 88.6 µM. Further, the TC50 in the data set on HEp-2 cells was more than 100.
`COc1cc2nc(N3CCN(C(=O)C4COc5ccccc5O4)CC3)nc(N)c2cc1OC` (centres unmarked) [Doxazosin, reference compound] showed an IC50 in the data set on iPS cardiomyocytes of 12.5 µM.

These data come from patent publication US10202412B2, “β-D-2′-deoxy-2′-substituted-4′-substituted-2-substituted-N6-substituted-6-aminopurinenucleotides for the treatment of paramyxovirus and orthomyxovirus infections” (Atea Pharmaceuticals, Inc., priority 2016, dated 2019).
